Test results taken from publication PMC8352719 (The Journal of General Physiology, 2021).
Several values for one entry are separate records, joined by “and”; a condition that tells them apart may be missing. Equal entries are not always repeated. Entries after “also recorded” stand apart in the source; their conditions may differ. Where two headings read alike, the source gives them in different places. Each block holds one compound with its values, some of them ahead of it.

Experiments:
[1] = LOP levels with a therapeutic dose in humans; assay type: in vivo; conditions: therapeutic dose of 2–4 mg, assuming solvation in 1 liter of luminal fluid
BK channel = conditions: ref Vouga et al., 2019; cited from earlier work
BKα channels = BKα channels (Homo sapiens, UniProt Q12791); assay: Kinetic model analysis
Chain of BKα channels (Q12791 whole entry): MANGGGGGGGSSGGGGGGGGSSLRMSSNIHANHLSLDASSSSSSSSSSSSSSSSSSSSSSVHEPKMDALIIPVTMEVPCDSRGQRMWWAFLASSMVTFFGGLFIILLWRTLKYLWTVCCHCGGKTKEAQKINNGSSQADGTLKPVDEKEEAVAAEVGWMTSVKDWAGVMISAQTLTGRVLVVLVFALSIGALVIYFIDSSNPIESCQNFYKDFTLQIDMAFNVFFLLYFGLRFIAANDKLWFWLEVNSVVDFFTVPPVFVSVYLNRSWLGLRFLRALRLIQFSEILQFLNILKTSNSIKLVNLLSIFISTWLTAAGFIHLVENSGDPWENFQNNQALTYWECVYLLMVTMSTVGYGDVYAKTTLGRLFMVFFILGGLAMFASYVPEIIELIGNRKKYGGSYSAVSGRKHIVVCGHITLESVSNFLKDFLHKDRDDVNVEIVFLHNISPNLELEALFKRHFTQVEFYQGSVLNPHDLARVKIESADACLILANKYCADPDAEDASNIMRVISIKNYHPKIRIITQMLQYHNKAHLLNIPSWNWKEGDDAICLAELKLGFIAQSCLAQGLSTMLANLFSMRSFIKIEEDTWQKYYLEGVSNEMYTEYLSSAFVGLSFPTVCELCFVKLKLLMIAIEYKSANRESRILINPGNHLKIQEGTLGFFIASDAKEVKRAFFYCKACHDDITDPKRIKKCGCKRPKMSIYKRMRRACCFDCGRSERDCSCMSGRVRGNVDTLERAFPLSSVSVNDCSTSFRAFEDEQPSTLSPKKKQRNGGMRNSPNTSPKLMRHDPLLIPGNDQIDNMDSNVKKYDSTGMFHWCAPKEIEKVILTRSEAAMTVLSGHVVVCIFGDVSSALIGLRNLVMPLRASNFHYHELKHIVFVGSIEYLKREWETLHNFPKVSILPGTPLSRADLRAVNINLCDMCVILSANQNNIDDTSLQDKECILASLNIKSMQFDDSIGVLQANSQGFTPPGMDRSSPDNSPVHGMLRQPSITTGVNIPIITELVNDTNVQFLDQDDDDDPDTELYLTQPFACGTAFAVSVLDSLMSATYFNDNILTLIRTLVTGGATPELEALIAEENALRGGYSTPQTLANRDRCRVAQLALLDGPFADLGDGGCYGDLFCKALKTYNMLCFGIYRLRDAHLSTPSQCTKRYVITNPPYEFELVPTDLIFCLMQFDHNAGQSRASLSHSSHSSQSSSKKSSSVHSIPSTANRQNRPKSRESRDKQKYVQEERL

[2] = humans; therapeutic dose of 2–4 mg; conversion of 2 ng/ml; cited from earlier work
[3] = target: T1, BKα channels (human BK channel α-subunit, HEK-293T) (Homo sapiens, UniProt Q12791); assay: biochemical
T1 sequence (Q12791 whole entry): as above

[4] = target: T1, BKα channels (human BK channel α-subunit, HEK-293T); conditions: 30 µM LOP
BKα/γ1 channels = BKα/γ1 channels (Homo sapiens, UniProt Q12791); assay: Whole-cell recordings from HEK-293T cells overexpressing BKα/γ1 channels; assay type: cell-based
Chain of BKα/γ1 channels (Q12791 whole entry, the tested form may be a part): as the sequence (Q12791 whole entry) above
Chain of BKα/γ1 channels (Q2I0M4 27-334 partner): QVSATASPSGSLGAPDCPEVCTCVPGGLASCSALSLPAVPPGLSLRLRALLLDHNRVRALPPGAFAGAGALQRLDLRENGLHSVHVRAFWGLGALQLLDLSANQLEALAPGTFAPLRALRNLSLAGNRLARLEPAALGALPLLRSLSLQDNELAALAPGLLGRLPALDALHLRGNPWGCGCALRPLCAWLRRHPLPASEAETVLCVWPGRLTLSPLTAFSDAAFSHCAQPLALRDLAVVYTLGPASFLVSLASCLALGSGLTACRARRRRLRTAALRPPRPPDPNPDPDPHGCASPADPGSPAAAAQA

[5] = target: T1, BKα channels (human BK channel α-subunit, HEK-293T); conditions: for τ of decay phase on LOP application: perfusion limited; for V1/2: 10 μM LOP; for effective off-rate: IC50 × on-rate; for τrecovery: two-pulse protocol
[6] = target: BKα/γ1 channels (human BK channel α- and γ1-subunits (LRRC26), HEK-293T) (Homo sapiens, UniProt Q12791); assay: Macroscopic BK currents in excised inside-out patches; assay type: biochemical
Chain of BKα/γ1 channels (human BK channel α- and γ1-subunits (LRRC26), HEK-293T) (Q12791 whole entry): as the sequence (Q12791 whole entry) above
Chain of BKα/γ1 channels (human BK channel α- and γ1-subunits (LRRC26), HEK-293T) (Q2I0M4 27-334 partner): as the sequence (Q2I0M4 27-334 partner) above

[7] = IC50 (Hill fit of mean Gmax versus [LOP]), nominally 0 Ca2+
[8] = IC50 (Hill fit of mean V1/2 versus [LOP]), nominally 0 Ca2+
[9] = nominally 0 Ca2+, −100 to −60 mV
[10] = nominally 0 Ca2+, 30 μM LOP, mean of individual Boltzmann fits

Compound: CN(C)C(=O)C(CCN1CCC(O)(c2ccc(Cl)cc2)CC1)(c1ccccc1)c1ccccc1 [LOP, 4-[4-(4-chlorophenyl)-4-hydroxypiperidin-1-yl]-N,N-dimethyl-2,2-diphenylbutanamide]
- estimated concentration of LOP in the intestinal lumen [1]: ≥ 8 µM
- inhibition of BK channel–mediated thallium flux (BK channel): potent inhibitor
- KLOP in the open state (BKα channels): 1.6 µM
- KLOP (dissociation constant for LOP binding) (BKα channels; Sch 2, closed state, global fit, nominally 0 and 88 μM Ca2+): 53.4 µM
- H (allosteric constant, LOP binding vs closed-open equilibrium) (BKα channels; Sch 2, fold difference in LOP affinity between closed and open states): 34.4
- W (coupling between LOP binding and CSD activation) (BKα channels; Sch 5): 1.09
- plasma levels of LOP [2]: ~4 nM
- IC50 ([3]; IC50 (Hill fit of mean Gmax versus [LOP]), 88 µM Ca2+): 1060 nM and 1100 nM
- IC50 [3, 7]: 1400 nM and 1410 nM
- IC50 ([3]; IC50 (Hill fit of mean V1/2 versus [LOP]), 88 µM Ca2+): 310 ± 300 nM
- IC50 [3, 8]: 550 nM
- IC50 ([3]; IC50(∞), asymptotic IC50 at very depolarized voltages (Eq. 4), 88 µM Ca2+): 870 nM
- IC50 ([3]; IC50(∞), asymptotic IC50 at very depolarized voltages (Eq. 4), nominally 0 Ca2+): 2200 nM
- IC50 ([3]; IC50, 88 μM Ca2+, Vm 50 mV, Hill fit of normalized G vs [LOP]): ~940 nM
- IC50 ([3]; extrapolated IC50, 88 µM Ca2+, 90 mV): 710 nM
- IC50 ([3]; half-maximal inhibitory concentration (IC50) for open channels, voltage-activated BK current, wide range of cytosolic [Ca2+]): ~1000 nM
- mean open times ([4]; voltages up to 100 mV, nominally 0 or 88 µM Ca2+): ≤ 0.44 ms
- V1/2 of mean open time (Boltzmann fit) ([4]; 88 µM Ca2+): −83 mV
- min. open time (Boltzmann fit) ([4]; 88 µM Ca2+): 0.26 ms
- zδ of mean open time (Boltzmann fit) ([4]; 88 µM Ca2+): 1.6 e0
- effective inhibition rate ([4]; 88 µM Ca2+, 1/0.43 ms): 2,326 s^−1
- mean open time ([4]; 88 µM Ca2+, +50 mV): 0.37 ± 0.044 ms
- maximum open time (Boltzmann fit) ([4]; 88 µM Ca2+, depolarized voltages): 0.43 ± 0.03 ms and 0.43 ms
- mean open time ([4]; 88 µM Ca2+, −50 mV): 0.44 ± 0.026 ms
- Po ([4]; 88 µM Ca2+, −90 mV): 0.00728 ± 0.0010
- inhibition of Po ([4]; 88 µM Ca2+, −90 mV): 2.7 fold
- mean open time ([4]; 88 µM Ca2+, −90 mV): 0.32 ± 0.03 ms
- Po ([4]; 88 µM Ca2+, −160 to −130 mV): 0.0037 ± 0.0003
- mean open time ([4]; 88 µM Ca2+, −160 to −130 mV): 0.26 ± 0.004 ms
- effective inhibition rate ([4]; nominally 0 Ca2+, 1/0.39 ms): 2,564 s^−1
- Po ([4]; nominally 0 Ca2+, +60 mV): 1.3 ± 0.6 × 10^−4
- inhibition of Po ([4]; nominally 0 Ca2+, +60 mV): 3.7 fold
- mean open time ([4]; nominally 0 Ca2+, +60 mV): 0.32 ± 0.03 ms
- Po ([4]; nominally 0 Ca2+, +80 mV): 5.4 ± 1.3 × 10^−4
- inhibition of Po ([4]; nominally 0 Ca2+, +80 mV): 3.5 fold
- mean open time ([4]; nominally 0 Ca2+, +80 mV): 0.38 ± 0.008 ms
- extrapolated maximum open time (Boltzmann fit) ([4]; nominally 0 Ca2+, depolarized voltages): 0.39 ± 0.04 ms
- mean Po [4, 9]: 1.7 ± 0.2 × 10^−6
- mean open time [4, 9]: 0.18 ± 0.009 ms
- current recovery after washout of LOP (of predrug amplitude) (BKα/γ1 channels; 10 µM LOP, extracellular bath): ~80%
- mean fractional whole-cell current at equilibrium (BKα/γ1 channels; bath application of 10 µM LOP, pulses to 100 mV): 0.39 ± 0.06
- slowing versus cytosolic application to excised inside-out patches (BKα/γ1 channels; extracellular bath-applied LOP): ~20 times
- mean time constant for inhibition to reach equilibrium (BKα/γ1 channels; extracellular bath-applied LOP (10 µM)): 2.8 ± 0.4 min
- τ of exponential fit (a) (BKα/γ1 channels; representative experiment Fig. 5 A, first application of 10 µM LOP at t = 5 min): 1.9 min
- τ of exponential fit (e) (BKα/γ1 channels; representative experiment Fig. 5 A, washout at t = 25 min): 51 s
- mean fractional current ([5]; 3 µM LOP cytosolic with 3 µM extracellular LOP (pipette), 88 µM Ca2+): 0.361 ± 0.013
- mean fractional current ([5]; 3 µM LOP cytosolic without extracellular LOP, 88 µM Ca2+): 0.292 ± 0.033
- effect of extracellular LOP alone on BK current ([5]; 3 µM LOP in pipette solution, 88 µM Ca2+, several minutes): little apparent effect; also recorded: no apparent inhibition
- decrease of normalized current ([5]; 3 µM LOP in the pipette, 0 LOP cytosolic, after 30 min of continuous recording): 5–10%
- τ of decay phase on LOP application ([5]; 30 µM LOP cytosolic, 0 µM Ca2+, representative experiment): 8.5 s
- τ of decay phase on LOP application ([5]; 30 µM LOP cytosolic, 88 µM Ca2+, representative experiment): 7.1 s
- current recovery after washout of LOP (of predrug amplitude) ([5]; 30 µM LOP cytosolic, Fig. 2 A): ~100%
- time constant of LOP reaching 90% of its maximal effect ([5]; 30 µM LOP to cytosolic side, 88 µM Ca2+, reflects solution switching): 7 ± 1 s
- A (Eq. 4, IC50 versus voltage) ([5]; 88 µM Ca2+): 0.39
- min V1/2 (Hill fit of mean V1/2 versus [LOP]) ([5]; 88 µM Ca2+): −57 ± 8 mV
- nH (Hill fit of mean Gmax versus [LOP]) ([5]; 88 µM Ca2+): 0.79 ± 0.06
- nH (Hill fit of mean V1/2 versus [LOP]) ([5]; 88 µM Ca2+): 0.94 ± 0.6
- y0 (final normalized current in pulse train) ([5]; 88 μM Ca2+, 3 µM LOP, 90 mV / -60 mV duration 2 / 2 ms): 0.50 ± 0.019
- y0 (final normalized current in pulse train) ([5]; 88 μM Ca2+, 3 µM LOP, 90 mV / -60 mV duration 2 / 8 ms): 0.74 ± 0.032
- V1/2 ([5]; 88 μM Ca2+, mean of individual Boltzmann fits): −54 ± 7 mV
- Gmax ([5]; 88 μM Ca2+, 30 μM LOP, mean of individual Boltzmann fits): 0.0763 ± 0.008
- effective on-rate (slope of 1/τdecay versus [LOP]) ([5]; 88 µM Ca2+, 50 mV): 4.3 ± 0.4 × 10^7 M^−1 s^−1 and 4.3 × 10^7 ± 0.4 × 10^7 M^−1 s^−1
- effective off-rate ([5]; 88 µM Ca2+, 50 mV): ~40 s⁻¹
- effective on-rate (slope of 1/τdecay versus [LOP]) ([5]; 88 µM Ca2+, 90 mV): 5.8 ± 0.6 × 10^7 M^−1 s^−1 and 5.8 × 10^7 ± 0.6 × 10^7 M^−1 s^−1
- effective off-rate ([5]; 88 µM Ca2+, 90 mV): 41 s⁻¹ and 40 s⁻¹
- nominal effective valence of on-rates (Eq. 5) ([5]; 88 µM Ca2+, on-rates at 50 and 90 mV): 0.21 ± 0.11 e0
- τrecovery ([5]; 88 µM Ca2+, −80 mV, 3 µM LOP): 3.87 ms
- τrecovery ([5]; 88 µM Ca2+, −80 mV, 10 µM LOP): 4.14 ms
- mean tail current τ ([5]; 88 µM Ca2+, −80 mV, 3 µM LOP): 1.82 ± 0.14 ms
- mean tail current τ ([5]; 88 µM Ca2+, −80 mV, 10 µM LOP): 2.05 ± 0.6 ms
- τrecovery ([5]; 88 µM Ca2+, −120 mV, 3 µM LOP): 2.04 ms
- τrecovery ([5]; 88 µM Ca2+, −120 mV, 10 µM LOP): 2.11 ms
- mean tail current τ ([5]; 88 µM Ca2+, −120 mV, 3 µM LOP): 0.71 ± 0.06 ms
- mean tail current τ ([5]; 88 µM Ca2+, −120 mV, 10 µM LOP): 0.78 ± 0.07 ms
- current recovery following washout of cytosolic LOP ([5]; 3 or 30 µM cytosolic LOP with 3 µM extracellular LOP, 88 µM Ca2+, Fig. 2 B): > 90%
- A (Eq. 4, IC50 versus voltage) ([5]; nominally 0 Ca2+): 5,500
- mean zδ value of G-V relations versus [LOP] ([5]; nominally 0 Ca2+): 1.1 e0
- min Gmax (Hill fit of mean Gmax versus [LOP]) ([5]; nominally 0 Ca2+): 0.16 ± 0.04
- min V1/2 (Hill fit of mean V1/2 versus [LOP]) ([5]; nominally 0 Ca2+): 162 ± 16 mV
- nH (Hill fit of mean Gmax versus [LOP]) ([5]; nominally 0 Ca2+): 1.2 ± 0.13
- nH (Hill fit of mean V1/2 versus [LOP]) ([5]; nominally 0 Ca2+): 0.65 ± 1.1
- V1/2 ([5]; nominally 0 Ca2+, mean of individual Boltzmann fits): 165 ± 5 mV
- time to complete reversal of inhibition upon washout ([5]; switch from 30 to 0 µM LOP, cytosolic side): ≤ 1 min
- τ of wash phase ([5]; washout of 30 µM LOP, 0 µM Ca2+, representative experiment): 35 s
- apparent closing rate (1/τclosing) ([5]; −80 mV, 3 µM LOP): 684 ± 57 s⁻¹
- tail current τ (fit to mean trace) ([5]; −80 mV, 3 µM LOP): 1.99 ms
- tail current τ (representative trace) ([5]; −80 mV, 3 µM LOP): 2.25 ms
- tail current τ (fit to mean trace) ([5]; −80 mV, 10 µM LOP): 1.77 ms
- tail current τ (representative trace) ([5]; −80 mV, 10 µM LOP): 1.73 ms
- apparent closing rate (1/τclosing) ([5]; −120 mV, 3 µM LOP): 1,460 ± 69 s^−1
- tail current τ (fit to mean trace) ([5]; −120 mV, 3 µM LOP): 0.82 ms
- tail current τ (representative trace) ([5]; −120 mV, 3 µM LOP): 0.876 ms
- tail current τ (fit to mean trace) ([5]; −120 mV, 10 µM LOP): 0.85 ms
- tail current τ (representative trace) ([5]; −120 mV, 10 µM LOP): 0.694 ms
- IC50 [6, 7]: 2130 ± 300 nM
- IC50 [6, 8]: 1500 ± 1700 nM
- IC50 ([6]; IC50, nominally 0 Ca2+, Vm 0 mV, Hill fit of normalized G vs [LOP]): 11300 ± 3500 nM
- A (Eq. 4, IC50 versus voltage) ([6]; nominally 0 Ca2+): 7.6
- mean zδ value of G-V relations versus [LOP] ([6]; nominally 0 Ca2+): 1.2 e0
- min V1/2 (Hill fit of mean V1/2 versus [LOP]) ([6]; nominally 0 Ca2+): −15 ± 11 mV
- nH (Hill fit of mean Gmax versus [LOP]) ([6]; nominally 0 Ca2+): 0.74 ± 0.06
- nH (Hill fit of mean V1/2 versus [LOP]) ([6]; nominally 0 Ca2+): 0.72 ± 0.4
- Gmax [6, 10]: 0.12 ± 0.04
- V1/2 [6, 10]: −11 ± 5 mV

- fractional current not blocked (BKα/γ1 channels; 1 mM extracellular TEA): 0.082 ± 0.0007
- time constant to reach equilibrium (BKα/γ1 channels; bath application of 1 mM TEA): 8.4 ± 1 s
- τ of exponential fit (c) (BKα/γ1 channels; representative experiment Fig. 5 A, back to 0 LOP/0 TEA at t = 17 min): 13.2 s
- τ of exponential fit (b) (BKα/γ1 channels; representative experiment Fig. 5 A, switch to 1 mM TEA at t = 15 min): 7.3 s
Compound: CC[N+](CC)(CC)CC [TEA]
